We go through 73 compounds from the OPERA property sets (Mansouri et al. 2018).

Details in one series: not given
Regarding `N=C(N)N(c1ccccc1)c1ccccc1`, the ready biodegradability result is on record as “not readily biodegradable”. With `CC1=Cc2ccccc2C1`, the boiling point was found to be 208 °C, the log10 biodegradation half-life (days) is 0.477 and the melting point was 80 °C. `CCCCc1ccc(C=O)cc1`: the ready biodegradability entry is “not readily biodegradable”. For the compound `c1ccc2c(c1)ccc1cccnc12`, the boiling point turned out to be 339 °C, the log10 vapour pressure (mmHg) is -3.66 and the melting point amounted to 52 °C. As for `O=C(NCCO[N+](=O)[O-])c1cccnc1`, the melting point was found to be 92.5 °C.

With `C1=COCC1`, the boiling point came to 54.5 °C and the log10 vapour pressure (mmHg) came out at 2.4. For the compound `Clc1cc(Cl)c(Cl)c(-c2cc(Cl)c(Cl)c(Cl)c2Cl)c1`, the log10 Henry constant (atm·m³/mol) was -5.89.

The compound `CCCC(C)C(C)CCC` (configuration not stated) returned a boiling point of 162 °C. As for `O=C(c1ccc(O)c(O)c1)c1c(O)cc(O)cc1O`, the melting point is 222 °C. `CON(C)C(=O)Nc1ccc(Br)cc1` returned a log10 Koc (L/kg) of 2.1, a log10 vapour pressure (mmHg) of -5.52 and a melting point of 95 °C. Take `Nc1ccc(Cl)cc1Cl`: the boiling point was 245 °C, the log10 Koc (L/kg) worked out at 2.72, the melting point is 63.5 °C and the ready biodegradability result was “not readily biodegradable”. Compound `Cc1cc(Cl)ccc1[N+](=O)[O-]` displayed a melting point of 25.5 °C. On to `CC(C)NCC(O)c1ccc(O)c(O)c1` (configuration not stated), for which the melting point was determined as 170 °C.

The compound `Fc1cc(F)c(F)cc1F` registered a boiling point of 90.2 °C, a log10 vapour pressure (mmHg) of 1.75 and a melting point of 4.5 °C. Consider `Clc1cccc(-c2cccc(Cl)c2Cl)c1`, for which the log10 Henry constant (atm·m³/mol) was -3.8.

In turn, `COc1ccc(NC(N)=O)cc1Cl` showed a log10 Koc (L/kg) of 2.

For `O=C(O)c1cccc(C(F)(F)F)c1`, the boiling point was 238 °C and the melting point worked out at 106 °C. Regarding `CS(=O)(=O)F`, the boiling point was determined as 124 °C and the log10 vapour pressure (mmHg) turned out to be 1.04. Take `CCCOCCC`: the boiling point was found to be 90 °C, the log10 Henry constant (atm·m³/mol) was -2.66, the log10 Koa turned out to be 2.97 and the log10 vapour pressure (mmHg) worked out at 1.8. Besides, the melting point is -122 °C.

As for `CC(C)S`, the boiling point is 52.5 °C, the log10 vapour pressure (mmHg) is 2.44 and the melting point is -130 °C. Turning to `Cn1ccnc1`, the boiling point was 196 °C and the melting point was -6 °C. `O=C(O)CC(S)C(=O)O` (configuration not stated) showed a melting point of 149 °C. Still for that read-out and setting: to `O=C(OC1CCCCC1)C(=O)OC1CCCCC1` belongs 43.5 °C.

Regarding `CCCC(C)=C(C)C`, the boiling point was found to be 122 °C, the log10 vapour pressure (mmHg) was 1.26 and the melting point was -115 °C. Compound `CC(N)CC(=O)O` (configuration not stated) returned a melting point of 193 °C. For the compound `O=C1NC(=O)C2CC=CCC12` (configuration not stated), the ready biodegradability entry is “not readily biodegradable”. `CC(O)CC(F)(F)F` (configuration not stated) showed a boiling point of 99.8 °C. For the compound `O=C(O)C1CCCCN1` (configuration not stated), the melting point was found to be 264 °C.

`CCCCCCc1cccc2ccccc12` displayed a boiling point of 322 °C and a melting point of -18 °C. For `O=P(Oc1ccccc1)(Oc1ccccc1)Oc1ccccc1`, the log10 vapour pressure (mmHg) was -5.2, the melting point worked out at 50.5 °C and the ready biodegradability entry is on record as “readily biodegradable”. `C=CC1(C)CC(OC(=O)CO)C2(C)C(C)CCC3(CCC(=O)C32)C(C)C1O` (configuration not stated) gave a melting point of 170 °C. On to `CCOc1ccc(Br)cc1`, for which the boiling point is 231 °C and the melting point worked out at 4 °C. Regarding `COc1ccccc1OC(C)=O`, the melting point was found to be 31.5 °C. `O=[N+]([O-])c1ccc2c(c1)CCN2` gave a melting point of 93 °C. On to `C1CCSSC1`, for which the melting point was 32.5 °C. With `CCOC(=O)C(=O)Cl`, the boiling point came out at 137 °C and the log10 vapour pressure (mmHg) is 0.882. For `C=C1/C(=C/C=C2/CCC[C@]3(C)[C@@H]([C@H](C)CCCC(C)C)CC[C@@H]23)C[C@@H](O)C[C@@H]1O`, the melting point was found to be 136 °C. On to `CCCC(Br)CC` (configuration not stated), for which the boiling point is 142 °C. Turning to `C=CC(C)CCCC` (configuration not stated), the boiling point was found to be 111 °C. With `O=C(O)CCC(=O)c1ccc2c(c1)-c1cccc3cccc-2c13`, the melting point amounted to 208 °C.

In turn, `COC(=O)CCCCCCCCC(=O)OC` registered a melting point of 38 °C. `C1CC2CCC1C2`: the boiling point turned out to be 105 °C and the melting point is 87.5 °C. Regarding `CCC(Cc1c(I)cc(I)c(O)c1I)C(=O)O` (configuration not stated), the melting point is 147 °C. With `O=C(CCl)Oc1ccccc1`, the boiling point turned out to be 232 °C and the melting point stood at 44.5 °C. With `CCOP(=S)(Oc1cnc(C(C)(C)C)nc1)OC(C)C` (configuration not stated), the log10 vapour pressure (mmHg) is -4.43.

`Nc1ccc(N)c2c1C(=O)c1c(N)ccc(N)c1C2=O`: the melting point amounted to 285 °C. The compound `ON=C1CCCCC1` showed a boiling point of 206 °C, a log10 vapour pressure (mmHg) of -1.55 and a melting point of 90 °C. In turn, `CCOC(=O)NC(N)=O` had a melting point of 196 °C.

Take `Cc1c(C)c(Br)c(Br)c(Br)c1Br`: the boiling point is 374 °C and the melting point was 262 °C. For `CCOP(=O)(OCC)OCC`, the boiling point worked out at 216 °C, the log10 Henry constant (atm·m³/mol) is -7.44, the log10 vapour pressure (mmHg) was -0.406 and the melting point is -56.4 °C. The ready biodegradability entry is listed as “not readily biodegradable”. Consider `c1cn[nH]c1`, for which the boiling point is 187 °C and the melting point is 68 °C.

Compound `O=C(c1ccc(O)cc1O)c1ccc(O)cc1O` displayed a melting point of 202 °C. For `CCC1CO1` (configuration not stated), the boiling point was 63.3 °C, the log10 vapour pressure (mmHg) was found to be 2.26 and the ready biodegradability entry is “readily biodegradable”. Consider `CCCN1CCCCC1`, for which the boiling point came out at 152 °C. Turning to `NC(=O)c1ccc(F)cc1`, the melting point was 156 °C.

With `CC(C)(c1ccccc1)c1ccc(Nc2ccc(C(C)(C)c3ccccc3)cc2)cc1`, the ready biodegradability result is “not readily biodegradable”.

`C#CC(C)(CC)OC(N)=O` (configuration not stated) displayed a melting point of 55.8 °C. Turning to `CS(C)(=O)=O`, the boiling point was 238 °C and the melting point turned out to be 109 °C.

On to `CC1CCNCC1`, for which the boiling point was 130 °C. Consider `O=[N+]([O-])c1cccc2c(Cl)cccc12`, for which the melting point came out at 111 °C. On to `COP(=S)(OC)Oc1c(Cl)cc(C)cc1Cl`, for which the log10 Koc (L/kg) was 3.7, the log10 vapour pressure (mmHg) is -3.37 and the melting point is 79 °C. Compound `Cc1ccc(OC(=O)c2ccccc2)cc1` returned a boiling point of 316 °C and a melting point of 71.5 °C. Turning to `CCCCCCCSCCCCCCC`, the boiling point was 298 °C.

Turning to `COc1ccc2c3c1O[C@H]1[C@@H](O)C=C[C@H]4[C@@H](C2)N(C)CC[C@@]341`, the melting point stood at 158 °C.

Take `O=C(O)c1cc(=O)cc(C(=O)O)o1`: the melting point came out at 262 °C.

Consider `CNc1ccccc1`, for which the boiling point came to 196 °C, the log10 Henry constant (atm·m³/mol) is -5.05, the log10 Koc (L/kg) was determined as 2.28 and the log10 vapour pressure (mmHg) was -0.344. The melting point is -57 °C and the ready biodegradability entry is given as “not readily biodegradable”. In turn, `CN(C)c1ccccc1[N+](=O)[O-]` returned a melting point of -20 °C. `COC(=O)[C@]1(C)CCC[C@@]2(C)[C@H]1CC=C1C=C(C(C)C)CC[C@@H]12` displayed a boiling point of 362 °C. Take `C#CCCCCC`: the boiling point worked out at 99.7 °C, the log10 vapour pressure (mmHg) was 1.72 and the melting point was -81 °C.

In turn, `Cc1c(N)cccc1N` displayed a boiling point of 260 °C, a log10 vapour pressure (mmHg) of -2.61 and a melting point of 106 °C. In turn, `CC(C)=C1OC(=O)N(c2cc(OC3CCCC3)c(Cl)cc2F)C1=O` yielded a melting point of 104 °C. Turning to `O=[N+]([O-])C(F)(F)F`, the log10 vapour pressure (mmHg) was found to be 3.85. `C#CCCC(=O)O`: the melting point came out at 57.7 °C.

The series is the same for the next values; noted with them: fish.
In turn, `Clc1cc(Cl)c(Cl)c(-c2cc(Cl)c(Cl)c(Cl)c2Cl)c1` registered a log10 biotransformation half-life (days) of 2.51. The compound `Nc1ccc(Cl)cc1Cl` gave a log10 BCF of 1.36 and a log10 biotransformation half-life (days) of -0.65.

Regarding `O=P(Oc1ccccc1)(Oc1ccccc1)Oc1ccccc1`, the log10 BCF was determined as 2.28 and the log10 biotransformation half-life (days) is -0.76. Compound `CCOP(=O)(OCC)OCC` registered a log10 BCF of 0.11 and a log10 biotransformation half-life (days) of -1.09. The compound `COP(=S)(OC)Oc1c(Cl)cc(C)cc1Cl` showed a log10 BCF of 2.86 and a log10 biotransformation half-life (days) of -0.11. With `CNc1ccccc1`, the log10 BCF came out at 1 and the log10 biotransformation half-life (days) is -0.88.
